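In this assay, cells in 96-well plates receive the compound at five concentrations for 48 hours. Endpoints are linearly interpolated between the surrounding concentrations. GI50 is the concentration that inhibits growth by half.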 The source made the active and inactive calls. Cut-off read from the data, not from the text of the source: active = GI50 up to about 1.1 µM and inactive = higher.
Tests used:
Assay in all cases: NCI anticancer screen, dose series, 48 h
KM12 = system: KM12
RPMI-8226 = system: RPMI-8226
UACC-257 = system: UACC-257
SF-295 = system: SF-295
MOLT-4 = system: MOLT-4
COLO 205 = system: COLO 205
IGROV-1 = system: IGROV-1
SK-OV-3 = system: SK-OV-3
SN12C = system: SN12C
UACC-62 = system: UACC-62
HT-29 = system: HT-29
K562 = system: K562
OVCAR-4 = system: OVCAR-4
UO-31 = system: UO-31
U-251 = system: U-251
HCT-116 = system: HCT-116
OVCAR-8 = system: OVCAR-8
HOP-92 = system: HOP-92
NCI-H226 = system: NCI-H226
SF-539 = system: SF-539

N#Cc1c(NC(=S)NC(=O)c2ccccc2)nc2c(c1-c1ccccc1)CCCC2
GI50 (KM12): > 100 µM (inactive)
GI50 (RPMI-8226): > 100 µM (inactive)
GI50 (UACC-257): > 100 µM (inactive)
GI50 (SF-295): 34.9 µM (inactive)
GI50 (MOLT-4): > 100 µM (inactive)
GI50 (COLO 205): > 100 µM (inactive)
GI50 (IGROV-1): > 100 µM (inactive)
GI50 (SK-OV-3): 31.4 µM (inactive)
GI50 (SN12C): > 10 µM (inactive)
GI50 (UACC-62): > 100 µM (inactive)
GI50 (HT-29): > 100 µM (inactive)
GI50 (K562): > 100 µM (inactive)
GI50 (OVCAR-4): 22.5 µM (inactive)
GI50 (UO-31): 88.7 µM (inactive)
GI50 (U-251): > 100 µM (inactive)
GI50 (HCT-116): > 100 µM (inactive)
GI50 (OVCAR-8): 36.6 µM (inactive)

c1ccc2c(c1)NCc1cc3ccccc3nc1O2
GI50 (KM12): > 100 µM (inactive)
GI50 (HOP-92): > 100 µM (inactive)
GI50 (RPMI-8226): > 100 µM (inactive)
GI50 (UACC-257): > 100 µM (inactive)
GI50 (SF-295): > 100 µM (inactive)
GI50 (MOLT-4): 83 µM (inactive)
GI50 (COLO 205): > 100 µM (inactive)
GI50 (IGROV-1): > 100 µM (inactive)
GI50 (SK-OV-3): > 100 µM (inactive)
GI50 (SN12C): > 100 µM (inactive)
GI50 (UACC-62): > 100 µM (inactive)
GI50 (HT-29): 71.6 µM (inactive)
GI50 (K562): > 100 µM (inactive)
GI50 (OVCAR-4): > 100 µM (inactive)
GI50 (UO-31): 26.9 µM (inactive)
GI50 (HCT-116): > 100 µM (inactive)
GI50 (NCI-H226): > 40.7 µM (inactive)
GI50 (OVCAR-8): > 100 µM (inactive)
GI50 (SF-539): > 100 µM (inactive)

COc1ccc(C2c3cc4c(cc3OC(NCCO)C2C)OCO4)cc1 (stereo not drawn)
GI50 (KM12): 31.7 µM (inactive)
GI50 (HOP-92): 34.3 µM (inactive)
GI50 (RPMI-8226): 22.1 µM (inactive)
GI50 (UACC-257): 21 µM (inactive)
GI50 (SF-295): 27.9 µM (inactive)
GI50 (MOLT-4): 16.6 µM (inactive)
GI50 (COLO 205): 18.4 µM (inactive)
GI50 (IGROV-1): 28.8 µM (inactive)
GI50 (SK-OV-3): 38.1 µM (inactive)
GI50 (SN12C): 23.8 µM (inactive)
GI50 (UACC-62): 28.2 µM (inactive)
GI50 (HT-29): 20 µM (inactive)
GI50 (K562): 22.5 µM (inactive)
GI50 (UO-31): 20.5 µM (inactive)
GI50 (U-251): 21.2 µM (inactive)
GI50 (HCT-116): 17.3 µM (inactive)
GI50 (NCI-H226): 28.2 µM (inactive)
GI50 (SF-539): 20 µM (inactive)

O=C1CCCCC2N(C(c3ccccc3)c3ccccc3)CC[C@@]12c1ccccc1.O=C1CCCC[C@H]2N(C(c3ccccc3)c3ccccc3)CC[C@@]12c1ccccc1 (stereo partly drawn)
GI50 (KM12): > 10 µM (inactive)
GI50 (HOP-92): 2.56 µM (inactive)
GI50 (RPMI-8226): 2.77 µM (inactive)
GI50 (UACC-257): 6.14 µM (inactive)
GI50 (SF-295): > 10 µM (inactive)
GI50 (MOLT-4): 3.06 µM (inactive)
GI50 (IGROV-1): > 10 µM (inactive)
GI50 (SK-OV-3): > 10 µM (inactive)
GI50 (SN12C): > 10 µM (inactive)
GI50 (UACC-62): > 10 µM (inactive)
GI50 (HT-29): 4 µM (inactive)
GI50 (K562): 4.27 µM (inactive)
GI50 (OVCAR-4): 4.21 µM (inactive)
GI50 (UO-31): 8.05 µM (inactive)
GI50 (U-251): > 10 µM (inactive)
GI50 (HCT-116): 2.99 µM (inactive)
GI50 (NCI-H226): 6.38 µM (inactive)
GI50 (OVCAR-8): > 10 µM (inactive)
GI50 (SF-539): > 10 µM (inactive)

CC(C(=O)NCCNC(=O)CCCC(=O)N(C)O)C(=O)NCCNC(=O)CCCC(=O)N(C)O
GI50 (KM12): > 100 µM (inactive)
GI50 (HOP-92): > 100 µM (inactive)
GI50 (RPMI-8226): > 100 µM (inactive)
GI50 (UACC-257): > 100 µM (inactive)
GI50 (SF-295): > 100 µM (inactive)
GI50 (MOLT-4): > 100 µM (inactive)
GI50 (COLO 205): > 100 µM (inactive)
GI50 (IGROV-1): > 100 µM (inactive)
GI50 (SK-OV-3): > 100 µM (inactive)
GI50 (UACC-62): > 100 µM (inactive)
GI50 (HT-29): > 100 µM (inactive)
GI50 (K562): > 100 µM (inactive)
GI50 (OVCAR-4): > 100 µM (inactive)
GI50 (UO-31): > 100 µM (inactive)
GI50 (U-251): > 100 µM (inactive)
GI50 (NCI-H226): > 100 µM (inactive)
GI50 (OVCAR-8): > 100 µM (inactive)

CN(C)c1ccc(C2CC(=O)CC(c3ccc(N(C)C)cc3)C23C(=O)NC(=O)NC3=O)cc1 (stereo not drawn)
GI50 (KM12): > 25 µM (inactive)
GI50 (HOP-92): 5.18 µM (inactive)
GI50 (RPMI-8226): > 25 µM (inactive)
GI50 (UACC-257): > 25 µM (inactive)
GI50 (SF-295): 19.8 µM (inactive)
GI50 (MOLT-4): 0.0025 µM (active)
GI50 (COLO 205): > 25 µM (inactive)
GI50 (IGROV-1): > 25 µM (inactive)
GI50 (SN12C): > 25 µM (inactive)
GI50 (UACC-62): 19.5 µM (inactive)
GI50 (HT-29): > 25 µM (inactive)
GI50 (K562): 0.025 µM (active)
GI50 (OVCAR-4): > 25 µM (inactive)
GI50 (UO-31): > 25 µM (inactive)
GI50 (U-251): 20.6 µM (inactive)
GI50 (HCT-116): > 25 µM (inactive)
GI50 (NCI-H226): > 25 µM (inactive)
GI50 (OVCAR-8): 14.4 µM (inactive)
GI50 (SF-539): 14.9 µM (inactive)

Cc1nn(C)c2c1C(=O)N(C)CC(=O)N2C
GI50 (KM12): > 100 µM (inactive)
GI50 (HOP-92): > 100 µM (inactive)
GI50 (RPMI-8226): > 100 µM (inactive)
GI50 (UACC-257): > 100 µM (inactive)
GI50 (SF-295): > 100 µM (inactive)
GI50 (MOLT-4): > 100 µM (inactive)
GI50 (COLO 205): > 100 µM (inactive)
GI50 (IGROV-1): > 100 µM (inactive)
GI50 (SK-OV-3): > 100 µM (inactive)
GI50 (SN12C): > 100 µM (inactive)
GI50 (UACC-62): > 100 µM (inactive)
GI50 (HT-29): > 100 µM (inactive)
GI50 (K562): > 100 µM (inactive)
GI50 (OVCAR-4): > 100 µM (inactive)
GI50 (UO-31): > 100 µM (inactive)
GI50 (U-251): > 100 µM (inactive)
GI50 (HCT-116): > 100 µM (inactive)
GI50 (OVCAR-8): > 100 µM (inactive)
GI50 (SF-539): > 100 µM (inactive)
